{
  "source": "patent US20220151979A1",
  "about": "“COMPOSITION FOR PREVENTION OR TREATMENT OF CARDIOVASCULAR AND METABOLIC DISEASE COMPRISING NORANHYDROICARITIN” (SEOUL NATIONAL UNIVERSITY HOSPITAL, priority 2019, published 2022)",
  "key": {"HepG2 cells": {"tested_on": "HepG2 cells", "experiment": "MTT cell viability of HepG2 cells", "type": "cell-based, human", "description": "In order to confirm the toxicity of noranhydroicaritin to cells, HepG2 cells (human liver hepatocellular carcinoma) were treated with each of kaempferol and noranhydroicaritin at various concentrations, and the cell viability of HepG2 cells at each concentration was calculated through the MTT screening method.\nSpecifically, HepG2 cells were suspended in DMEM (Welgene Inc.) medium containing 10% fetal bovine serum at a concentration of 1×10^5 cells/mL, and 100 μL thereof was inoculated into each well of a 96-well plate. After 4 hours, the HepG2 cells in the well plate were treated with each of kaempferol and noranhydroicaritin samples at concentrations of 2.5 μM, 5 μM, 10 μM, and 20 μM. After incubation for 24 hours, 5 μL of MTT (5 mg/mL) was added to the well plate, and the cells were further incubated for 4 hours. Thereafter, the medium was removed, 100 μL of DMSO was added to the well plate, the reaction was conducted, and then the absorbance was measured at 570 nm. As a control, cholesterol synthesis inhibitors atorvastatin (Ato) and rosuvastatin (Ros) were used. The cell viability was calculated according to the following mathematical formula as a value relative to 100% of the value for the negative control treated only with DMSO. The results are illustrated in FIG. 1. […]"}, "PCSK9": {"tested_on": "PCSK9", "experiment": "Immunoblot of PCSK9 in HepG2 cells", "type": "cell-based, human", "settings": "HepG2 cells, 5, 10, 20 μM", "description": "(§1) In order to confirm the effect of noranhydroicaritin to inhibit PCSK9 expression and increase LDLR expression, immunoblotting targeting PCSK9 and LDLR was performed and the expression levels were compared. β-Actin was used as a control.\n(§2) In a 100 mm Petri dish, 1×10^6 HepG2 cells were aliquoted and treated with noranhydroicaritin at various concentrations (5 μM, 10 μM, and 20 μM), and then the cells were removed from the cell-culture dish and homogenized using a protein extraction solution (NP40, ELPIS BIOTECH, Korea) containing a protease inhibitor cocktail (Roche).\n(§3) In order to prepare the total protein, the cells were extracted in RIPA lysis buffer (50 mM Tris-HCl (pH 7.4), 150 mM NaCl, 5 mM EDTA, 5 mM EGTA, 5 mM sodium fluoride, 2 mM sodium orthovanadate, 1% NP-40, 0.1% sodium dodecyl sulfate [SDS], 1 mM phenylmethylsulfonyl fluoride [PMSF], and protein inhibitor cocktail [Roche Diagnostics, Heidelberg, Germany]). The protein concentration in the lysate was measured using the Bio-Rad dye-binding micro assay. For immunoblotting, 30 μg of cell lysate was isolated via SDS-polyacrylamide gel electrophoresis (PAGE). The proteins were transferred onto the Hybond-ECL nitrocellulose membrane (Amersham Biosciences, Buckinghamshire, UK). […] HRP-conjugated secondary antibodies were detected using an ECL detection reagent."}, "LDLR": {"tested_on": "LDLR", "experiment": "Immunoblot of LDLR in HepG2 cells", "type": "cell-based, human", "settings": "HepG2 cells, 5, 10, 20 μM", "description": "as §1, §2, §3"}, "SREBP 1 promoter": {"tested_on": "SREBP 1 promoter", "experiment": "SREBP 1 promoter-reporter luciferase assay in HEK293T cells", "type": "cell-based, human", "settings": "pGL4.14-SREBP-transfected HEK293T cells, 18 hours, compared to control", "description": "(§4) In order to confirm the SREBP gene expression inhibitory effect of noranhydroicaritin, HEK293T cells were treated with noranhydroicaritin and kaempferol, and it was confirmed whether the expression of SREBP was inhibited through a luciferase assay.\n(§5) i) A primer was prepared to contain KpnI and XhoI restriction enzyme sites in the SREBP 1 and 2 promoter gene region, and then PCR (polymerase chain reaction) and electrophoresis on an agarose gel were performed to isolate SREBP promoter region DNA. A pGL4.14-[luc2/Hygro] vector containing a firefly luciferase as a reporter gene was treated with the same restriction enzymes (KpnI and XhoI), and then isolated via agarose gel electrophoresis and gel extraction. The purely isolated SREBP promoter gene region and pGL4.14-[luc2/Hygro] vector were reacted for 1 hour using In-fusion DNA ligase (Takara), and then transformed into E. coli to prepare a promoter-reporter construct in which the SREBP promoter was inserted, and this was named pGL4.14-SREBP.\n(§6) ii) In order to measure the transcriptional activity of the SREBP promoter gene, HEK293T cells were transfected with pGL4.14-SREBP, and then the luciferase activity of the cell extract was measured. […] Thereafter, the luciferase activity was measured by the method of Example 6. […]"}, "SREBP 2 promoter": {"tested_on": "SREBP 2 promoter", "experiment": "SREBP 2 promoter-reporter luciferase assay in HEK293T cells", "type": "cell-based, human", "settings": "pGL4.14-SREBP-transfected HEK293T cells, 18 hours, compared to control", "description": "as §4, §5, §6"}, "IL-1B": {"tested_on": "IL-1B", "experiment": "Immunofluorescence of IL-1B in carotid artery, mouse arteriosclerosis model", "type": "in vivo", "settings": "10 μg/g/day", "description": "(§7) Carotid artery ligation was performed one week after injection of AAV-PCSK9 Virus (1×10^11 IFU/mL) and noranhydroicaritin (10 μg/g/day). After 3 weeks of ligation, it was confirmed whether the atherosclerosis model was completed, and gross plaque imaging and immunofluorescence were performed to confirm the arteriosclerosis inhibitory effect of noranhydroicaritin.\n(§8) Furthermore, the arteriosclerosis inhibitory effect of noranhydroicaritin was confirmed using immunofluorescence. Specifically, a mouse carotid artery was obtained and fixed in 4% PFA for one day, and then prepared into a block. As the inflammatory response in blood vessels progresses, the arteriosclerosis worsens, and thus the marker […] of macrophages causing arteriosclerotic inflammatory response and TNF-α, IL-1B, and MCP-1, which are pro-inflammatory cytokines secreted when the inflammatory response occurs, were stained. Staining was performed using the antibody for each of CAP1(1:200), PCSK9(1:100), F4/80(1:100), TNF-α(1:100), […], and MCP-1(1:100), then imaging was performed using a confocal microscope, and […] was evaluated."}, "F/480": {"tested_on": "F/480", "experiment": "Immunofluorescence of macrophage marker F/480 in carotid artery, mouse arteriosclerosis model", "type": "in vivo", "settings": "10 μg/g/day", "description": "as §7, §8"}},
  "data": [
    {"smiles": "CC(C)=CCc1c(O)cc(O)c2c(=O)c(O)c(-c3ccc(O)cc3)oc12", "note": "[Noranhydroicaritin, noranhydroicaritin]", "values": [
      {"measurement": "cell viability", "setting": "HepG2 cells; 20 μM, 24 hours, MTT, relative to DMSO negative control", "value": "≥ 90", "unit": "%"},
      {"measurement": "cell viability compared with control", "setting": "HepG2 cells; same concentration as atorvastatin or rosuvastatin", "value": "higher than the cell viability of the cells treated with atorvastatin or rosuvastatin"},
      {"measurement": "PCSK9 expression (immunoblot)", "setting": "PCSK9", "value": "decreased in a concentration-dependent manner"},
      {"measurement": "LDLR expression (immunoblot)", "setting": "LDLR", "value": "increased in a concentration-dependent manner"},
      {"measurement": "SREBP 1 luciferase activity", "setting": "SREBP 1 promoter", "value": "significantly decreased"},
      {"measurement": "SREBP 2 luciferase activity", "setting": "SREBP 2 promoter", "value": "significantly decreased"},
      {"measurement": "expression of IL-1B (immunofluorescence)", "setting": "IL-1B", "value": "decreased"},
      {"measurement": "expression of F/480, a marker of macrophages (immunofluorescence)", "setting": "F/480", "value": "also decreased"}
    ]}
  ]
}
